Experiments:
[1] = biological target: benzodiazepine site of the GABAA/BZ/chloride channel complex (rat brain GBR enriched synaptosomal preparation); test: Enhancement of [3H]-Flunitrazepam binding to the benzodiazepine site in rat brain synaptosomal membranes; settings: for EC50: enhancement of 1 nM [3H]-Flunitrazepam binding, 40 μg rat brain synaptosomal membrane, 30° C., 30 min; for Maximum stimulation: maximum stimulation of 1 nM [3H]-Flunitrazepam specific binding, normalized to control without test compound

| Structure (SMILES) | melting point [°C] | EC50 [1] | Maximum stimulation [1] [%] |
| --- | --- | --- | --- |
| C[C@]12CC[C@@H](N=[N+]=[N-])C[C@@H]1CC[C@@H]1[C@@H]2CC[C@]2(C)[C@@H](C(=O)CBr)CC[C@@H]12 | 108 to 110 | – | – |
| C=C=CC(O)[C@H]1CC[C@H]2[C@@H]3CC[C@H]4CC(O)CC[C@]4(C)[C@H]3CC[C@]12C (mixture of isomers) [17β-(1-hydroxy-2,3-butadienyl)-5α-androstane-3ol (mixture of C-20 epimers), 17β-(1-hydroxy-2,3-butadienyl)-5α-androstane-3-ol] | 174 to 177 | 5.9 nM | 45.8 |
| C#CC(OC)[C@H]1CC[C@H]2[C@@H]3CC[C@H]4C[C@H](O)CC[C@]4(C)[C@H]3CC[C@]12C (mixture of isomers) [17β-(1-methoxy-2-propynyl)-5α-androstan-3α-ol (mixture of C-20 epimers), 17β-(1-methoxy-2-propynyl)-5α-androstan-3α-ol] | 161 to 163 | 4.48 nM | 18.1 |
| C#CC(O)[C@H]1CC[C@H]2[C@@H]3CC[C@H]4CC(O)CC[C@]4(C)[C@H]3CC[C@]12C (single isomer, unassigned) [17β-(1-hydroxy-2-propynyl)-5α-androstan-3-ol (less polar C-20 epimer), 17β-(1-hydroxy-2-propynyl)-5α-androstan-3-ol] | – | inactive | – |
| COc1ccc(C#CC(O)[C@H]2CC[C@H]3[C@@H]4CC[C@H]5C[C@H](O)CC[C@]5(C)[C@H]4CC[C@]23C)cc1 (single isomer, unassigned) [17β-[1-hydroxy-3-(4-methoxyphenyl)-2-propynyl]-5α-androstan-3α-ol] | – | 36.3 nM | 23.3 |
| C[C@]12CC[C@@H](N=[N+]=[N-])C[C@@H]1CC[C@@H]1[C@@H]2CC[C@]2(C)[C@@H](C(=O)CN=[N+]=[N-])CC[C@@H]12 [3α,21-di-azido-5α-pregnan-20-one] | 133 to 135 | 314 nM | 16.4 |
| CC(=O)[C@H]1CC[C@H]2[C@@H]3CC[C@H]4C[C@H](N=[N+]=[N-])CC[C@]4(C)[C@H]3CC[C@]12C [3α-azido-5α-pregnan-20-one, 3α-Azido-5α-pregnan-20-one] | 159 to 162 | inactive | – |
| CC(=O)[C@H]1CC[C@H]2[C@@H]3CC[C@H]4C[C@H](O)CC[C@]4(C)[C@H]3CC[C@]12C [3α-hydroxy-5α-pregnan-20-one, reference compound] | – | 212 nM | 36 |
| C[C@]12CC[C@@H](O)C[C@@H]1CC[C@@H]1[C@@H]2CC[C@]2(C)[C@@H](C#CBr)CC[C@@H]12 [17β-(2-bromoethynyl)-5α-androstane-3α-ol] | 165 to 167 | 326 nM | 72.7 |
| COC(=O)C#C[C@H]1CC[C@H]2[C@@H]3CC[C@H]4C[C@H](O)CC[C@]4(C)[C@H]3CC[C@]12C [17β-(2-methoxycarbonylethynyl)-5α-androstane-3α-ol] | 135 to 137 | 515 nM | 55.6 |
| CC(O)C#C[C@H]1CC[C@H]2[C@@H]3CC[C@H]4C[C@H](O)CC[C@]4(C)[C@H]3CC[C@]12C (stereo partly drawn) [17β-(3-hydroxy-1-butynyl)-5α-androstane-3α-ol] | 169 to 171 | inactive | – |
| CC(=O)C#C[C@H]1CC[C@H]2[C@@H]3CC[C@H]4C[C@H](O)CC[C@]4(C)[C@H]3CC[C@]12C [17β-(3-oxo-1-butynyl)-5α-androstan-3α-ol] | 148 to 150 | inactive | – |
| Cc1ccc(C#C[C@H]2CC[C@H]3[C@@H]4CC[C@H]5C[C@H](O)CC[C@]5(C)[C@H]4CC[C@]23C)cc1 [17β-[2-(4-tolyl)ethynyl]-5α-androstane-3α-ol] | 178 to 180 | 2380 nM | 52.6 |

Source: patent publication US7064116B2, “GABAA modulating neurosteroids” (priority 2000, dated 2006)
